Experiments:
RAW 264.7 cells = experiment: AlamarBlue assay for cell viability (cytotoxicity); conditions: read-out: IC50 (cytotoxicity), RAW 264.7 macrophages, 24 h treatment, 6.25-100 µM tested
[1] = system: LPS-activated RAW 264.7 macrophages; experiment: Intracellular ROS production (DCF fluorescence), LPS-induced; format: cell-based, murine; conditions: RAW 264.7, 30 min pretreatment; compound 1h 20 µM, NAC 10 mM
Procedure: Intracellular ROS production was measured by detecting the fluorescence intensity of the 2’, 7’-dichlorofluorescein, the oxidation product of 2’, 7’-dichlorofluorescein diacetate (Molecular Probes, Eugene, OR). In one study, RAW 264.7 macrophages (5 × 10^5/ml; 0.1 ml) were incubated with vehicle, compound 1h (20 µM), or NAC (10 mM) for 30 min, then 2’, 7’-dichlorofluorescein diacetate (2 µM) was added for 30 min, then LPS was added for the indicated time. In another, J774A.1 macrophages (5 × 10^5/ml; 0.1 ml) were incubated with LPS (1 µg/ml) for 6 h, then vehicle, compound 1h (20 µM), or DPI (25 µM) was added for 30 min. 2’, 7’-dichlorofluorescein diacetate (2 µM) was then added for 30 min before incubation with ATP (5 mM) for the indicated time; while, in another, the order of addition of compound1h/DPI and LPS was reversed. The fluorescence intensity of 2’, 7’-dichlorofluorescein was detected at an excitation wavelength of 485 nm and an emission wavelength of 530 nm on a microplate absorbance reader (Bio-Rad Laboratories, Inc).
To test whether compound 1h exerted its anti-inflammatory effect on LPS-activated cells by downregulation of ROS production, intracellular ROS production in LPS-activated RAW 264.7 macrophages was measured.
Figure 5 Effect of compound 1h on ROS production and MAPK phosphorylation in LPS-activated macrophages. […]

various cancer cells = system: various cancer cells; parameters: method as in PMID 16468746; conditions: cited from earlier work
in vitro = conditions: mouse
[2] = system: ATP-activated LPS-primed J774A.1 macrophages; experiment: Intracellular ROS production (DCF fluorescence), ATP-induced; format: cell-based, murine
Procedure: Intracellular ROS production was measured by detecting the fluorescence intensity of the 2’, 7’-dichlorofluorescein, the oxidation product of 2’, 7’-dichlorofluorescein diacetate (Molecular Probes, Eugene, OR). […] In another, J774A.1 macrophages (5 × 10^5/ml; 0.1 ml) were incubated with LPS (1 µg/ml) for 6 h, then vehicle, compound 1h (20 µM), or DPI (25 µM) was added for 30 min. 2’, 7’-dichlorofluorescein diacetate (2 µM) was then added for 30 min before incubation with ATP (5 mM) for the indicated time; while, in another, the order of addition of compound1h/DPI and LPS was reversed. The fluorescence intensity of 2’, 7’-dichlorofluorescein was detected at an excitation wavelength of 485 nm and an emission wavelength of 530 nm on a microplate absorbance reader (Bio-Rad Laboratories, Inc).
In (A), J774A.1 macrophages (1 × 10^6/ml; 1 ml) were incubated with LPS (1 µg/ml) for 6 h, then with compound 1h (20 µM), the NADPH oxidase inhibitor DPI (25 µM), or DMSO (vehicle) for 30 min in the continued presence of LPS, then 2’,7’-dichlorofluorescein diacetate (2 µM) was added for 30 min, followed by ATP (5 mM) for the indicated time, then ROS levels were determined by measuring the mean fluorescence intensity (MFI) of the fluorophore carboxyl-DCF and expressing this value relative to that at time zero. In (B), J774A.1 macrophages (1 × 10^6/ml; 1 ml) were incubated with compound 1h (20 µM), DPI (25 µM), or DMSO (vehicle) for 30 min, then LPS (1 µg/ml) was added for 6 h; the cells were then incubated with 2’,7’-dichlorofluorescein diacetate (2 µM) for 30 min, then with ATP (5 mM) for the indicated time and ROS levels were measured by detection of the fluorescence intensity of the fluorophore carboxyl-DCF and expressed relative to that at time zero.

[3] = system: LPS-activated RAW 264.7 macrophages; experiment: NO production inhibitory assay (Griess reaction); format: cell-based, murine; conditions: for ED50 (inhibition of LPS-induced NO production): RAW 264.7 macrophages, LPS 1 µg/ml, 24 h, Griess reaction; for NO production by LPS-activated cells: 2.5-40 µM, 30 min before and during LPS 1 µg/ml 24 h; for NO levels produced by non-activated cells: compound alone, no LPS (data not shown)
Procedure: RAW 264.7 cells seeded in 24-well plates at a density of 5 × 10^5 cells/ml (1 ml) were incubated for 24 h with or without LPS (1 µg/ml) in the absence or presence of the test samples, then NO production was measured indirectly by analysis of nitrite levels using the Griess reaction.
(§1) To investigate the inhibitory effect of compounds 1h, 1i, and 1n on the LPS-induced inflammatory response, NO levels in the supernatants of RAW 264.7 macrophages incubated with DMSO (vehicle) or compound 1h, 1i, or 1n for 30 min before, and during, incubation for 24 h with LPS (1 µg/ml) were measured by the Griess reaction. […] We next investigated their effect on the expression of iNOS, the NO producing enzyme, using Western blots.
(§2) Figure 2 Effect of polyenylpyrrole derivatives on the expression of inflammatory mediators in LPS-stimulated RAW 264.7 macrophages. In (A) and (C), the cells (5 × 10^5/ml; 1 ml) were incubated for 30 min with 2.5-40 µM compound 1h, 1i, or 1n or DMSO (vehicle), then LPS (1 µg/ml) was added and incubation continued for 24 h, then NO (A) or IL-6 or TNF-α (C) in the culture medium was assayed by the Griess reaction or ELISA, respectively. In (B), cells (5 × 10^5/ml; 1 ml) were pretreated for 30 min with 2.5-40 µM compound 1h or DMSO, then LPS (1 µg/ml) was added and incubation continued for 24 h, then expression of iNOS and COX-2 was measured by Western blotting. The fold increase is the intensity of the band of interest divided by that of the actin band normalized to the corresponding value for the 0 LPS/0 inhibitor control.

[4] = system: LPS-activated RAW 264.7 macrophages; experiment: iNOS and COX-2 expression by Western blot; format: cell-based, murine; conditions: 30 min pretreatment, LPS 24 h; for COX-2 expression / LPS-induced iNOS expression: 0-40 µM; for Concentration at which reduction of LPS-induced iNOS expression is significant: Western blot
Procedure: Cells were washed twice with ice-cold phosphate-buffered saline (PBS) and lysed on ice for 5 min with lysis buffer (20 mM Tris-HCl, pH 7.5, 150 mM NaCl, 1 mM Na 2EDTA, 1 mM EGTA, 1% Triton X-100, 2.5 mM sodium pyrophosphate, 1 mM beta-glycerophosphate, 1 mM Na 3VO4, 1 µg/ml of leupeptin, 1 mM PMSF, protease inhibitor cocktail). The lysate was then centrifuged at 12,000 x g at 4 °C for 10 min and the pellet discarded. Proteins in the supernatant were separated by SDS-PAGE and electrotransferred to a PVDF membrane (EMD Millipore Corporation), which was then blocked by incubation for 1 h at room temperature in blocking buffer [(5% nonfat milk in PBS containing 0.1% Tween 20 (PBST)], then incubated for 2 h at room temperature with the primary antibody diluted in blocking buffer. After three washes in PBST, the membrane was incubated for 1 h at room temperature with an appropriate HRP-conjugated secondary antibody diluted in blocking buffer and developed using an enhanced chemiluminescence Western blot detection system (EMD Millipore Corporation).
as §1, §2

[5] = system: LPS-activated RAW 264.7 macrophages; experiment: IL-6 and TNF-α secretion by ELISA; format: cell-based, murine; conditions: for IL-6 production by LPS-activated cells / TNF-α secretion by LPS-activated cells: RAW 264.7, 2.5-40 µM, LPS 1 µg/ml 24 h; for Background levels of IL-6 and TNF-α in non-stimulated macrophages: RAW 264.7, no LPS (data not shown)
Procedure: The effects of the test samples on IL-1β, TNF-α, and IL-6 production were measured by ELISA according to the manufacturer’s instructions. In brief, 50 µl of biotinylated antibody reagent and 50 µl of supernatant were added to a stripwell plate precoated with anti-mouse IL-1β, TNF-α, or IL-6 antibodies, which was then incubated at room temperature for 2 h. After washing the plate three times with washing buffer, 100 µl of diluted streptavidin-HRP concentrate was added to each well and the plate incubated at room temperature for 30 min. The washing process was repeated, then 100 µl of a premixed tetramethylbenzidine substrate solution was added to each well and the plate incubated at room temperature in the dark for 30 min. After addition of 100 µl of stop solution to each well, the absorbance at 450 nm of each well was measured on a microplate reader.
as §1, §2

SMILES: CCCCc1c(OC)cc(/C=C/C=C/C=C/C=C/c2[nH]ccc2Cl)oc1=O [1c]
- IC50 (RAW 264.7 cells): < 10 µM

SMILES: CC(=O)N[C@@H](CS)C(=O)O [NAC, N-acetyl cysteine, reference compound]
- LPS-stimulated ROS production [1]: reduced ROS production

SMILES: CC\C(=C/C=C/C=C/C=C/c1[nH]ccc1Cl)c1cc(OC)c(C)c(=O)o1 [1f]
- IC50 (RAW 264.7 cells): < 10 µM

SMILES: COc1cc(/C(C)=C/C=C/C=C/C=C/c2[nH]ccc2Cl)oc(=O)c1C [compound 1e, 12E-isorumbrin]
- Cytotoxicity for various cancer cells (various cancer cells): shown to be cytotoxic for various cancer cells
- IC50 (in vitro): < 10 µM

SMILES: c1ccc2c(c1)[I+]c1ccccc1-2 [DPI, diphenylene iodonium, reference compound]
- ATP-induced ROS production, compound added after LPS priming ([2]; J774A.1, LPS 6 h, then compound 1h 20 µM or DPI 25 µM 30 min, ATP 5 mM 0-40 min): inhibited both processes
- ATP-induced ROS production, compound added 30 min before LPS priming ([2]; J774A.1, compound 1h 20 µM or DPI 25 µM 30 min, then LPS 6 h, then ATP 5 mM): inhibited both processes

SMILES: COc1cc(/C=C/C=C/C=C/C=C/c2sccc2Cl)oc(=O)c1C [1k]
- IC50 (RAW 264.7 cells): > 100 µM
- ED50 (inhibition of LPS-induced NO production) [3]: 18 ± 2 µM

SMILES: COc1cc(/C=C/C=C/C=C/C=C/c2c(Cl)ccn2S(C)(=O)=O)oc(=O)c1C [1n]
- IC50 (RAW 264.7 cells): > 100 µM
- COX-2 expression [4]: did not affect expression of COX-2
- LPS-induced iNOS expression [4]: reduced LPS-induced iNOS expression
- Concentration at which reduction of LPS-induced iNOS expression is significant [4]: 40 µM
- NO production by LPS-activated cells [3]: decreased NO production by LPS-activated cells in a dose-dependent manner
- ED50 (inhibition of LPS-induced NO production) [3]: 17 ± 2 µM
- NO levels produced by non-activated cells [3]: did not alter NO levels produced by non-activated cells
- IL-6 production by LPS-activated cells [5]: significantly decreased IL-6 production by LPS-activated cells in a dose-dependent manner
- TNF-α secretion by LPS-activated cells [5]: only slightly and non-significantly reduced
- Background levels of IL-6 and TNF-α in non-stimulated macrophages [5]: none of the three compounds altered background levels of IL-6 and TNF-α

SMILES: COc1cc(/C=C/C=C/C=C/C=C/c2sccc2Cl)oc(=O)c1 [1j]
- IC50 (RAW 264.7 cells): > 100 µM
- ED50 (inhibition of LPS-induced NO production) [3]: 29 ± 6 µM

SMILES: COc1cc(/C=C/C=C/C=C/C=C/c2[nH]ccc2Cl)oc(=O)c1C [compound 1b, auxarconjugatin A]
- IC50 (in vitro): < 10 µM

SMILES: CCCCc1c(OC)cc(/C(C)=C/C=C/C=C/C=C/c2[nH]ccc2Cl)oc1=O [1g]
- IC50 (RAW 264.7 cells): < 10 µM

SMILES: COc1cc(/C=C/C=C/C=C/C=C/c2ccccc2Cl)oc(=O)c1C [1l]
- IC50 (RAW 264.7 cells): > 100 µM
- ED50 (inhibition of LPS-induced NO production) [3]: 18 ± 3 µM

SMILES: COc1cc(/C=C/C=C/C=C/C=C/c2[nH]ccc2Cl)oc(=O)c1 [1a]
- IC50 (RAW 264.7 cells): < 10 µM

SMILES: Cc1c(O)cc(/C=C/C=C/C=C/C=C/c2[nH]ccc2Cl)oc1=O [compound 1i]
- IC50 (RAW 264.7 cells): > 100 µM
- COX-2 expression [4]: did not affect expression of COX-2
- LPS-induced iNOS expression [4]: reduced LPS-induced iNOS expression
- Concentration at which reduction of LPS-induced iNOS expression is significant [4]: 40 µM
- NO production by LPS-activated cells [3]: decreased NO production by LPS-activated cells in a dose-dependent manner
- ED50 (inhibition of LPS-induced NO production) [3]: 16 ± 2 µM
- NO levels produced by non-activated cells [3]: did not alter NO levels produced by non-activated cells
- IL-6 production by LPS-activated cells [5]: significantly decreased IL-6 production by LPS-activated cells in a dose-dependent manner
- TNF-α secretion by LPS-activated cells [5]: only slightly and non-significantly reduced
- Background levels of IL-6 and TNF-α in non-stimulated macrophages [5]: none of the three compounds altered background levels of IL-6 and TNF-α

SMILES: COc1cc(/C=C/C=C/C=C/C=C/c2cccc(Cl)c2)oc(=O)c1C [1m]
- IC50 (RAW 264.7 cells): > 100 µM
- ED50 (inhibition of LPS-induced NO production) [3]: 26 ± 3 µM

SMILES: COc1cc(/C(C)=C/C=C/C=C/C=C/c2[nH]ccc2Cl)oc(=O)c1 [1d]
- IC50 (RAW 264.7 cells): < 10 µM
